Results published in PMC6071731 (2018).

Key:
[1] = tested on: 22AG (DNA, G4) AGGGTTAGGGTTAGGGTTAGGG; test: fluorimetric titration; conditions: 95 mM K+; potassium phosphate buffer, 5% DMSO, pH 7.0; ligand 20 μM; DNA concentration in oligonucleotide
[2] = tested on: 22AG (DNA, G4) AGGGTTAGGGTTAGGGTTAGGG; test: photometric titration; conditions: 95 mM K+; potassium phosphate buffer, 5% DMSO, pH 7.0; ligand 20 μM; DNA concentration in oligonucleotide

Row | Kb [1] [M⁻¹] | Kb [2] [M⁻¹] | Structure (SMILES)
1 | 30000 |  | C(#Cc1cc2ccccc2c2ccccc12)c1ccc2c[n+]3ccccc3cc2c1
2 |  | 26000 | COc1ccc(C#Cc2ccc3c[n+]4ccccc4cc3c2)cc1
3 | 220000 |  | C(#Cc1ccc2c[n+]3ccccc3cc2c1)c1ccccc1
4 |  | 16000 | CN(C)c1ccc(C#Cc2ccc3c[n+]4ccccc4cc3c2)cc1
